Experimental data reported in PubChem BioAssay (NCI).
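Exposure lasted 48 hours, with cells grown in 96-well plates and compounds tested at five concentrations. Abbreviation: GI50, concentration required for 50% inhibition of growth. TGI: concentration producing complete growth inhibition.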

What was measured:
Assay in all cases: inhibition of tumour cell growth, NCI panel, 48 h
[1] = system: DU-145 prostate
[2] = system: EKVX NSCLC
[3] = system: HCT-116 colon
[4] = system: HOP-92 NSCLC
[5] = system: KM12 colon
[6] = system: MOLT-4 leukemia
[7] = system: NCI-H522 lung
[8] = system: OVCAR-4 ovarian
[9] = system: PC-3 prostate
[10] = system: SK-MEL-28 melanoma

SMILES	TGI [1]	TGI [2]	TGI [3]	TGI [4]	TGI [5]	TGI [6]	TGI [7]	TGI [8]	TGI [9]	TGI [10]	GI50 [1]	GI50 [2]	GI50 [3]	GI50 [4]	GI50 [5]	GI50 [6]	GI50 [7]	GI50 [8]	GI50 [9]	GI50 [10]
NS(=O)(=O)c1ccc(NC(NC(=O)C(C(F)(F)F)C(F)(F)F)(C(F)(F)F)C(F)(F)F)cc1	> 100 µM	> 100 µM	> 100 µM	> 100 µM	> 100 µM	> 100 µM	> 100 µM	> 100 µM	> 100 µM	> 100 µM										
COc1cc2c(cc1OC)C13CC[N+]4(C)CC5=CCOC6CC(=O)N2C1C6C5CC34[O-] (configuration not stated)	> 100 µM	> 100 µM	> 100 µM	> 100 µM	> 100 µM	> 100 µM	> 100 µM	> 100 µM	> 100 µM	> 100 µM										
CCCOC(=O)NC(C)C(=O)NC(CCC(=O)NC(CCCC(N)C(=O)O)C(=O)NC(C)C(=O)O)C(=O)O (configuration not stated)	65.3 µM	> 100 µM	> 100 µM	77.4 µM	27.4 µM	41.9 µM	> 100 µM	70.6 µM	53.7 µM	44.9 µM										
COC(=O)C1OC(O[C@H]2CC[C@]3(C)[C@H]4CC=C5[C@@H]6CC(C)(C)CC[C@]6(C(=O)OC6OCC(O)C(O)C6OC6OC(C)C(OC7OCC(OC8OCC(O)C(O)C8O)C(O)C7O)C(O)C6O)[C@H](O)C[C@@]5(C)[C@]4(C)CC[C@H]3C2(C)C)C(O)C(O)C1O (some centres not stated)	16.9 µM	5.86 µM	12.9 µM	4.77 µM	14.2 µM	> 100 µM	7.76 µM	21.6 µM	15.5 µM	4.24 µM										
c1ccc(-c2cnc(-c3ccc(-c4ncc(-c5ccccc5)o4)cc3)o2)cc1	> 100 µM	> 100 µM	> 100 µM	> 100 µM	> 100 µM	> 100 µM	> 100 µM	> 100 µM	> 100 µM	> 100 µM										
Cc1ccc(S(=O)(=O)NC(=O)NNc2ccc(F)cc2)cc1	> 100 µM	> 100 µM	> 100 µM	> 100 µM	> 100 µM	> 100 µM	> 100 µM	> 100 µM	> 100 µM	> 100 µM										
COP(=O)(OC)C12CCOCCN1c1ccccc1C2=O (configuration not stated)	> 100 µM	> 100 µM	> 100 µM	> 100 µM	> 100 µM	> 100 µM	> 100 µM	> 100 µM	> 100 µM	> 100 µM										
C=C1C(=O)OC2/C=C(/C)C3(O)OC(C)(CC(OC(=O)C(C)C)C12)CC3OC(C)=O (configuration not stated)	> 69.6 µM	46.5 µM	> 100 µM	40.1 µM	41 µM	> 31.6 µM	6.25 µM	> 65.5 µM	62.9 µM	> 53 µM										
COC(=O)c1cc2c(cc1CC(Cc1ccc3c(c1)CCC3)C(=O)OC)CCC2 (configuration not stated)	> 100 µM	> 100 µM	> 100 µM	> 100 µM	> 100 µM	> 100 µM	> 100 µM	81.8 µM	> 100 µM	> 100 µM										
CC1=CC(=O)CC2(C)CCC(C(C)CC(=O)CC(C)C)CC12 (configuration not stated)	> 100 µM	> 100 µM	30.4 µM	> 100 µM	36.4 µM	40.6 µM	30.8 µM	> 100 µM	40.7 µM	72.9 µM										
COc1c(O)c(O)cc2c1-c1ccc(OC)c(=O)cc1C(NC(C)=O)CC2 (configuration not stated)	40.6 µM	98.2 µM	25.6 µM	17.8 µM	33 µM	43.6 µM	3.5 µM	77.2 µM	> 100 µM	> 100 µM										
CC(C)(C)c1ccc(OCC(=O)O)c(Cl)c1	> 100 µM	> 100 µM	> 100 µM	> 100 µM	> 100 µM	> 100 µM	> 100 µM	> 100 µM	> 100 µM	> 100 µM										
COC(=O)c1cc(C)ccc1CC(Cc1ccc(C)cc1)C(=O)OC (configuration not stated)	> 100 µM	> 100 µM	> 100 µM	60.2 µM	> 100 µM	> 49.5 µM	> 100 µM	> 100 µM	> 100 µM	> 100 µM										
COC(=O)C1(Cc2ccc3c(c2)CCC3)Cc2cc3c(cc2C1)CCC3	> 100 µM	> 100 µM	> 100 µM	> 100 µM	> 100 µM	> 100 µM	56.5 µM	89.3 µM	> 100 µM	> 100 µM										
COC(=O)C1=C(C)NC(C)=C([N+](=O)[O-])C1c1cccc(N=O)c1 (configuration not stated)	28.7 µM	41.2 µM	23 µM	12.8 µM	26.4 µM	> 100 µM	5.34 µM	24.7 µM	32.9 µM	32 µM										
c1ccc(C2=Nn3c(CCCCCCCCc4nnc5n4N=C(c4ccccc4)CS5)nnc3SC2)cc1	> 100 µM	> 100 µM	> 100 µM	> 82.3 µM	> 100 µM	> 77.9 µM	> 100 µM	> 100 µM	> 100 µM	> 100 µM										
COc1cc([C@@H]2c3cc4c(cc3[C@@H](c3c(O)cc(O)c5c3O[C@H](c3ccc(O)c(O)c3)[C@@H](O)C5)[C@H]3COC(=O)[C@H]23)OCO4)cc(OC)c1O	> 100 µM	> 100 µM	> 100 µM	> 100 µM	> 100 µM	> 100 µM	> 100 µM	> 100 µM	> 100 µM	> 100 µM										
COc1ccc(N=Nc2c3c(c(O)c4ccccc24)CCC(C)(C)O3)cc1	71.8 µM	54.1 µM	28.9 µM	47.1 µM	29.5 µM	> 100 µM	33.5 µM	50.4 µM	87 µM	43.1 µM										
COc1ccc(-c2csc(NC(=O)CSc3nc(C)c(-c4ccccc4)n3Nc3ccccc3)n2)cc1	> 100 µM	> 100 µM	> 100 µM	> 100 µM	> 100 µM	> 100 µM	> 100 µM	> 100 µM	> 100 µM	> 100 µM	18 µM	3.8 µM	5.32 µM	> 100 µM	5.71 µM	3.78 µM	3.35 µM	8.24 µM	5.16 µM	> 100 µM
Cc1c2ccncc2c(C)c2c1[nH]c1ccccc12	2.13 µM	3 µM	1.68 µM	2.59 µM	2.36 µM	1.75 µM	2.93 µM	2.66 µM	8.55 µM	3 µM	0.695 µM								1.2 µM	
CCOC(=O)C(C)c1nc2c(Cl)c3ncccc3cc2[nH]c1=O (configuration not stated)	> 100 µM	> 100 µM	> 100 µM	> 100 µM	> 100 µM	> 100 µM	> 100 µM	> 100 µM	> 100 µM	> 100 µM										
O=C(O)c1ccc2c(c1)CC1(C2)Cc2cc3c(cc2C1=O)CCC3 (configuration not stated)	> 100 µM	> 100 µM	> 100 µM	> 100 µM	> 100 µM	> 100 µM	> 100 µM	> 100 µM	> 100 µM	> 100 µM										
Cc1cn([C@H]2C[C@](C)(CO)N(C)O2)c(=O)[nH]c1=O	> 100 µM	> 100 µM	> 100 µM	> 100 µM	> 100 µM	> 100 µM	> 100 µM	> 100 µM	> 100 µM	> 100 µM										
O=C1CS(=O)C23c4cc5ccccc5n4CCC2CCCN13 (configuration not stated)	> 100 µM	> 100 µM	> 100 µM	> 100 µM	> 100 µM	> 100 µM	> 100 µM	> 100 µM	> 100 µM	> 100 µM										
COc1ccc(N=C2C(=S)N(c3ccc(OC)cc3)/C(=N/S(=O)(=O)c3ccccc3)N2c2ccccc2)cc1	> 48.8 µM	31.8 µM	17.7 µM	20.7 µM	34.6 µM	> 100 µM	4.24 µM	22.4 µM	11.1 µM	29.7 µM										
COC(=O)[C@H](C)NC(=O)[C@H](CSC)N1C(=O)N[C@@H](C(C)C)C1=O	> 100 µM	> 100 µM	> 100 µM	> 100 µM	> 100 µM	> 100 µM	> 100 µM	> 100 µM	> 100 µM	> 100 µM										
